Source: ChEMBL document CHEMBL1201862, “PubChem BioAssay data set” (2004)
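Cultured in 96-well plates, cells were exposed to test compound for 48 hours across five concentrations. The concentration for 50% growth inhibition is given as GI50.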 Activity calls are given as the source filed them. No stated cut-off is given here; in the data, active = GI50 up to about 1.1 µM and inactive = higher. Where a SMILES comes first, the peptide text is derived from it. Bridges are numbered along the chain shown (N, C = ends). The star is where a group is joined. Cbz = O=C(OCc1ccccc1)*

Columns and labels:
Experiment in all cases: NCI tumour cell line growth inhibition, 48 h
KM12 = tested on: KM12
OVCAR-3 = tested on: OVCAR-3
786-0 = tested on: 786-0
NCI-H226 = tested on: NCI-H226
IGROV-1 = tested on: IGROV-1
SK-MEL-5 = tested on: SK-MEL-5
SN12C = tested on: SN12C
HL-60 = tested on: HL-60
COLO 205 = tested on: COLO 205
NCI/ADR-RES = tested on: NCI/ADR-RES
OVCAR-8 = tested on: OVCAR-8
HCT-15 = tested on: HCT-15
PC-3 = tested on: PC-3
HOP-92 = tested on: HOP-92
SW-620 = tested on: SW-620
HOP-62 = tested on: HOP-62
CAKI-1 = tested on: CAKI-1

SMILES: O=[N+]([O-])/C=C/c1ccc2ccccc2c1
- GI50 (KM12): 1.77 µM (inactive)
- GI50 (OVCAR-3): 2.86 µM (inactive)
- GI50 (786-0): 2.85 µM (inactive)
- GI50 (NCI-H226): 7.89 µM (inactive)
- GI50 (IGROV-1): 2.79 µM (inactive)
- GI50 (SK-MEL-5): 3.19 µM (inactive)
- GI50 (SN12C): 5.64 µM (inactive)
- GI50 (HL-60): 2.37 µM (inactive)
- GI50 (COLO 205): 2.29 µM (inactive)
- GI50 (NCI/ADR-RES): 4.27 µM (inactive)
- GI50 (OVCAR-8): 2.69 µM (inactive)
- GI50 (HCT-15): 2.22 µM
- GI50 (PC-3): 6.49 µM (inactive)
- GI50 (HOP-92): 6.62 µM (inactive)
- GI50 (SW-620): 2.47 µM (inactive)
- GI50 (HOP-62): 5.53 µM (inactive)
- GI50 (CAKI-1): 8.43 µM (inactive)

SMILES: CCOC(=O)/C(=C\c1cccc(C)c1)C(C)=O
- GI50 (KM12): 15.2 µM (inactive)
- GI50 (OVCAR-3): 14.5 µM (inactive)
- GI50 (786-0): 13.6 µM (inactive)
- GI50 (NCI-H226): 24.9 µM (inactive)
- GI50 (IGROV-1): 15.4 µM (inactive)
- GI50 (SK-MEL-5): 16.6 µM (inactive)
- GI50 (SN12C): 17.1 µM (inactive)
- GI50 (HL-60): 3.98 µM (inactive)
- GI50 (COLO 205): 19.2 µM (inactive)
- GI50 (NCI/ADR-RES): 19.6 µM (inactive)
- GI50 (OVCAR-8): 21.6 µM (inactive)
- GI50 (HCT-15): 15.6 µM
- GI50 (PC-3): 10.5 µM (inactive)
- GI50 (HOP-92): 6.7 µM (inactive)
- GI50 (SW-620): 12.5 µM (inactive)
- GI50 (HOP-62): 24.5 µM (inactive)
- GI50 (CAKI-1): 20.9 µM (inactive)

SMILES: O=C(OC1C=C=CS(=O)(=O)CC#C/C=C\1)c1cnc2ccccc2n1 (stereo not given)
- GI50 (KM12): > 100 µM (inactive)
- GI50 (OVCAR-3): > 100 µM (inactive)
- GI50 (NCI-H226): > 100 µM (inactive)
- GI50 (IGROV-1): 79.6 µM (inactive)
- GI50 (SK-MEL-5): 91.4 µM (inactive)
- GI50 (SN12C): > 100 µM (inactive)
- GI50 (HL-60): 76.4 µM (inactive)
- GI50 (COLO 205): 63.7 µM (inactive)
- GI50 (NCI/ADR-RES): > 100 µM (inactive)
- GI50 (OVCAR-8): > 100 µM (inactive)
- GI50 (HCT-15): 48.4 µM
- GI50 (PC-3): > 100 µM (inactive)
- GI50 (HOP-92): 12.7 µM (inactive)
- GI50 (SW-620): 40.8 µM (inactive)
- GI50 (HOP-62): > 100 µM (inactive)
- GI50 (CAKI-1): > 100 µM (inactive)

SMILES: O=C1/C(=C/c2ccc(O)c(O)c2)CC/C1=C\c1ccc(O)c(O)c1
- GI50 (KM12): 9.79 µM (inactive)
- GI50 (OVCAR-3): 5.09 µM (inactive)
- GI50 (786-0): 3.83 µM (inactive)
- GI50 (NCI-H226): 7.46 µM (inactive)
- GI50 (IGROV-1): 3.74 µM (inactive)
- GI50 (SK-MEL-5): 4.03 µM (inactive)
- GI50 (SN12C): 7.29 µM (inactive)
- GI50 (HL-60): 3.39 µM (inactive)
- GI50 (COLO 205): 16.2 µM (inactive)
- GI50 (NCI/ADR-RES): 8.24 µM (inactive)
- GI50 (OVCAR-8): 10 µM (inactive)
- GI50 (HCT-15): 7.16 µM
- GI50 (PC-3): 11.8 µM (inactive)
- GI50 (HOP-92): 4.17 µM (inactive)
- GI50 (SW-620): 14 µM (inactive)
- GI50 (HOP-62): 7.11 µM (inactive)
- GI50 (CAKI-1): 8.17 µM (inactive)

SMILES: c1ccc2c(Cc3c[nH]c4ccccc34)c[nH]c2c1 [ARUNDINE]
- GI50 (KM12): 19.1 µM (inactive)
- GI50 (OVCAR-3): 15.7 µM (inactive)
- GI50 (786-0): 18.5 µM (inactive)
- GI50 (NCI-H226): 2.14 µM (inactive)
- GI50 (IGROV-1): 14.7 µM (inactive)
- GI50 (SK-MEL-5): 13.7 µM (inactive)
- GI50 (SN12C): 16.6 µM (inactive)
- GI50 (HL-60): 12.5 µM (inactive)
- GI50 (COLO 205): 13.6 µM (inactive)
- GI50 (NCI/ADR-RES): 19.1 µM (inactive)
- GI50 (OVCAR-8): 20.5 µM (inactive)
- GI50 (HCT-15): 23.4 µM
- GI50 (PC-3): 18.2 µM (inactive)
- GI50 (HOP-92): 16 µM (inactive)
- GI50 (SW-620): 20.1 µM (inactive)
- GI50 (HOP-62): 17.7 µM (inactive)
- GI50 (CAKI-1): 15.9 µM (inactive)

SMILES: COC(=O)C1CCCCNC(=O)CCC(NC(=O)OCc2ccccc2)C(=O)N1 (stereo not drawn) (Cbz-Glu-Lys-OMe; lactam 1-2; configuration not given here)
- GI50 (KM12): > 100 µM (inactive)
- GI50 (OVCAR-3): > 100 µM (inactive)
- GI50 (786-0): 43.6 µM (inactive)
- GI50 (NCI-H226): > 100 µM (inactive)
- GI50 (IGROV-1): > 100 µM (inactive)
- GI50 (SK-MEL-5): > 100 µM (inactive)
- GI50 (SN12C): > 100 µM (inactive)
- GI50 (HL-60): > 100 µM (inactive)
- GI50 (COLO 205): > 100 µM (inactive)
- GI50 (NCI/ADR-RES): > 100 µM (inactive)
- GI50 (OVCAR-8): > 100 µM (inactive)
- GI50 (HCT-15): > 100 µM
- GI50 (PC-3): > 100 µM (inactive)
- GI50 (HOP-92): 43.6 µM (inactive)
- GI50 (SW-620): > 100 µM (inactive)
- GI50 (HOP-62): 38.7 µM (inactive)
- GI50 (CAKI-1): > 100 µM (inactive)

SMILES: N#Cc1c(=O)c2cc([N+](=O)[O-])ccc2n2c1[nH]c1ccccc12
- GI50 (KM12): 5.85 µM (inactive)
- GI50 (OVCAR-3): 3.43 µM (inactive)
- GI50 (786-0): 6.75 µM (inactive)
- GI50 (NCI-H226): 4.58 µM (inactive)
- GI50 (IGROV-1): 12.5 µM (inactive)
- GI50 (SK-MEL-5): 13.3 µM (inactive)
- GI50 (SN12C): 9.93 µM (inactive)
- GI50 (HL-60): 4.81 µM (inactive)
- GI50 (COLO 205): 4.99 µM (inactive)
- GI50 (NCI/ADR-RES): 3.54 µM (inactive)
- GI50 (OVCAR-8): 5.27 µM (inactive)
- GI50 (HCT-15): 7.64 µM
- GI50 (PC-3): 4 µM (inactive)
- GI50 (HOP-92): 2.62 µM (inactive)
- GI50 (SW-620): 8.71 µM (inactive)
- GI50 (HOP-62): 9.55 µM (inactive)
- GI50 (CAKI-1): 6.84 µM (inactive)

SMILES: O=C1N/C(=N/N=C/c2ccccc2)N/C1=C\c1c[nH]c2ccccc12
- GI50 (KM12): 65 µM (inactive)
- GI50 (OVCAR-3): 49.7 µM (inactive)
- GI50 (786-0): 41.5 µM (inactive)
- GI50 (NCI-H226): 72.6 µM (inactive)
- GI50 (IGROV-1): > 100 µM (inactive)
- GI50 (SK-MEL-5): > 100 µM (inactive)
- GI50 (SN12C): 29.2 µM (inactive)
- GI50 (HL-60): 67.3 µM (inactive)
- GI50 (COLO 205): 60.7 µM (inactive)
- GI50 (NCI/ADR-RES): > 100 µM (inactive)
- GI50 (OVCAR-8): 38.2 µM (inactive)
- GI50 (HCT-15): > 100 µM
- GI50 (PC-3): 22.6 µM (inactive)
- GI50 (HOP-92): > 100 µM (inactive)
- GI50 (SW-620): 64.4 µM (inactive)
- GI50 (HOP-62): 61.4 µM (inactive)
- GI50 (CAKI-1): > 100 µM (inactive)
